Experiments:
Type in all cases: functional
SF-295 = experiment: Cytotoxicity against Homo sapiens (human) SF295 cells assessed as growth inhibition at 10 uM after 48 hr by coulter counter analysis; conditions: SF-295, 48 h, read-out: GI
OVCAR-4 = experiment: Cytotoxicity against Homo sapiens (human) OVCAR4 cells assessed as growth inhibition at 10 uM after 48 hr by coulter counter analysis; conditions: OVCAR-4, 48 h, read-out: GI
SF-268 = experiment: Cytotoxicity against Homo sapiens (human) SF268 cells assessed as growth inhibition at 10 uM after 48 hr by coulter counter analysis; conditions: SF-268, 48 h, read-out: GI
LOX IMVI = experiment: Cytotoxicity against Homo sapiens (human) LOXIMVI cells assessed as growth inhibition at 10 uM after 48 hr by coulter counter analysis; conditions: read-out: GI
KM12 = experiment: Cytotoxicity against Homo sapiens (human) KM12 cells assessed as growth inhibition at 10 uM after 48 hr by coulter counter analysis; conditions: KM12, 48 h, read-out: GI
MCF7 = experiment: Cytotoxicity against Homo sapiens (human) MCF7 cells assessed as growth inhibition at 10 uM after 48 hr by coulter counter analysis; conditions: MCF7, 48 h, read-out: GI
NCI-H23 = experiment: Cytotoxicity against Homo sapiens (human) NCI-H23 cells assessed as growth inhibition at 10 uM after 48 hr by coulter counter analysis; conditions: NCI-H23, 48 h, read-out: GI
HCT-116 = experiment: Cytotoxicity against Homo sapiens (human) HCT116 cells assessed as growth inhibition at 10 uM after 48 hr by coulter counter analysis; conditions: HCT-116, 48 h, read-out: GI
SNB-19 = experiment: Cytotoxicity against Homo sapiens (human) SNB19 cells assessed as growth inhibition at 10 uM after 48 hr by coulter counter analysis; conditions: SNB-19, 48 h, read-out: GI
OVCAR-3 = experiment: Cytotoxicity against Homo sapiens (human) OVCAR3 cells assessed as growth inhibition at 10 uM after 48 hr by coulter counter analysis; conditions: OVCAR-3, 48 h, read-out: GI
RXF 393 = experiment: Cytotoxicity against Homo sapiens (human) RXF393 cells assessed as growth inhibition at 10 uM after 48 hr by coulter counter analysis; conditions: RXF 393, 48 h, read-out: GI
SK-OV-3 = experiment: Cytotoxicity against Homo sapiens (human) SKOV3 cells assessed as growth inhibition at 10 uM after 48 hr by coulter counter analysis; conditions: SK-OV-3, 48 h, read-out: GI
TK-10 = experiment: Cytotoxicity against Homo sapiens (human) TK10 cells assessed as growth inhibition at 10 uM after 48 hr by coulter counter analysis; conditions: TK-10, 48 h, read-out: GI
MDA-MB-468 = experiment: Cytotoxicity against Homo sapiens (human) MDA-MB-468 cells assessed as growth inhibition at 10 uM after 48 hr by coulter counter analysis; conditions: MDA-MB-468, 48 h, read-out: GI
NCI-H322M = experiment: Cytotoxicity against Homo sapiens (human) NCI-H322M cells assessed as growth inhibition at 10 uM after 48 hr by coulter counter analysis; conditions: read-out: GI
PC-3 = experiment: Cytotoxicity against Homo sapiens (human) PC3 cells assessed as growth inhibition at 10 uM after 48 hr by coulter counter analysis; conditions: PC-3, 48 h, read-out: GI
HCT-15 = experiment: Cytotoxicity against Homo sapiens (human) HCT15 cells assessed as growth inhibition at 10 uM after 48 hr by coulter counter analysis; conditions: HCT-15, 48 h, read-out: GI
M14 = experiment: Cytotoxicity against Homo sapiens (human) M14 cells assessed as growth inhibition at 10 uM after 48 hr by coulter counter analysis; conditions: M14, 48 h, read-out: GI
HT-29 = experiment: Cytotoxicity against Homo sapiens (human) HT-29 cells assessed as growth inhibition at 10 uM after 48 hr by coulter counter analysis; conditions: HT-29, 48 h, read-out: GI
MDA-MB-231 = experiment: Cytotoxicity against Homo sapiens (human) MDA-MB-231 cells assessed as growth inhibition at 10 uM after 48 hr by coulter counter analysis; conditions: MDA-MB-231, 48 h, read-out: GI
SK-MEL-28 = experiment: Cytotoxicity against Homo sapiens (human) SK-MEL-28 cells assessed as growth inhibition at 10 uM after 48 hr by coulter counter analysis; conditions: SK-MEL-28, 48 h, read-out: GI
Malme-3M = experiment: Cytotoxicity against Homo sapiens (human) MALME-3M cells assessed as growth inhibition at 10 uM after 48 hr by coulter counter analysis; conditions: read-out: GI
ACHN = experiment: Cytotoxicity against Homo sapiens (human) ACHN cells assessed as growth inhibition at 10 uM after 48 hr by coulter counter analysis; conditions: read-out: GI
IGROV-1 = experiment: Cytotoxicity against Homo sapiens (human) IGROV1 cells assessed as growth inhibition at 10 uM after 48 hr by coulter counter analysis; conditions: IGROV-1, 48 h, read-out: GI
DU-145 = experiment: Cytotoxicity against Homo sapiens (human) DU145 cells assessed as growth inhibition at 10 uM after 48 hr by coulter counter analysis; conditions: DU-145, 48 h, read-out: GI
UO-31 = experiment: Cytotoxicity against Homo sapiens (human) UO31 cells assessed as growth inhibition at 10 uM after 48 hr by coulter counter analysis; conditions: UO-31, 48 h, read-out: GI
SF-539 = experiment: Cytotoxicity against Homo sapiens (human) SF539 cells assessed as growth inhibition at 10 uM after 48 hr by coulter counter analysis; conditions: SF-539, 48 h, read-out: GI
UACC-62 = experiment: Cytotoxicity against Homo sapiens (human) UACC62 cells assessed as growth inhibition at 10 uM after 48 hr by coulter counter analysis; conditions: UACC-62, 48 h, read-out: GI
[1] = Cytotoxicity against Homo sapiens (human) NCI-ADR-RES cells assessed as growth inhibition at 10 uM after 48 hr by coulter counter analysis; conditions: read-out: GI
CAKI-1 = experiment: Cytotoxicity against Homo sapiens (human) Caki1 cells assessed as growth inhibition at 10 uM after 48 hr by coulter counter analysis; conditions: CAKI-1, 48 h, read-out: GI
COLO 205 = experiment: Cytotoxicity against Homo sapiens (human) COLO205 cells assessed as growth inhibition at 10 uM after 48 hr by coulter counter analysis; conditions: COLO 205, 48 h, read-out: GI
SW-620 = experiment: Cytotoxicity against Homo sapiens (human) SW620 cells assessed as growth inhibition at 10 uM after 48 hr by coulter counter analysis; conditions: SW-620, 48 h, read-out: GI
OVCAR-8 = experiment: Cytotoxicity against Homo sapiens (human) OVCAR8 cells assessed as growth inhibition at 10 uM after 48 hr by coulter counter analysis; conditions: OVCAR-8, 48 h, read-out: GI
OVCAR-5 = experiment: Cytotoxicity against Homo sapiens (human) OVCAR5 cells assessed as growth inhibition at 10 uM after 48 hr by coulter counter analysis; conditions: OVCAR-5, 48 h, read-out: GI

| SMILES | inhibition of growth at 10 µM (SF-295) [%] | inhibition of growth at 10 µM (OVCAR-4) [%] | inhibition of growth at 10 µM (SF-268) [%] | inhibition of growth at 10 µM (LOX IMVI) [%] | inhibition of growth at 10 µM (KM12) [%] | inhibition of growth at 10 µM (MCF7) [%] | inhibition of growth at 10 µM (NCI-H23) [%] | inhibition of growth at 10 µM (HCT-116) [%] | inhibition of growth at 10 µM (SNB-19) [%] | inhibition of growth at 10 µM (OVCAR-3) [%] | inhibition of growth at 10 µM (RXF 393) [%] | inhibition of growth at 10 µM (SK-OV-3) [%] | inhibition of growth at 10 µM (TK-10) [%] | inhibition of growth at 10 µM (MDA-MB-468) [%] | inhibition of growth at 10 µM (NCI-H322M) [%] | inhibition of growth at 10 µM (PC-3) [%] | inhibition of growth at 10 µM (HCT-15) [%] | inhibition of growth at 10 µM (M14) [%] | inhibition of growth at 10 µM (HT-29) [%] | inhibition of growth at 10 µM (MDA-MB-231) [%] | further results |
| --- | --- | --- | --- | --- | --- | --- | --- | --- | --- | --- | --- | --- | --- | --- | --- | --- | --- | --- | --- | --- | --- |
| O=C1c2ccccc2C(=O)N1CCCSc1nc2ccccc2c(=O)n1CCc1ccccc1 | < 10 | < 10 | < 10 | < 10 | < 10 | < 10 | < 10 | 21 | < 10 | < 10 | < 10 | 12 | < 10 | < 10 | < 10 | 51 | 31 | < 10 | 13 | 14 | inhibition of growth at 10 µM (SK-MEL-28): < 10%; inhibition of growth at 10 µM (Malme-3M): < 10%; inhibition of growth at 10 µM (ACHN): < 10%; inhibition of growth at 10 µM (IGROV-1): < 10%; inhibition of growth at 10 µM (DU-145): < 10%; inhibition of growth at 10 µM (UO-31): 19%; inhibition of growth at 10 µM (SF-539): < 10%; inhibition of growth at 10 µM (UACC-62): 26%; inhibition of growth at 10 µM [1]: < 10%; inhibition of growth at 10 µM (CAKI-1): 34%; inhibition of growth at 10 µM (COLO 205): < 10%; inhibition of growth at 10 µM (SW-620): < 10%; inhibition of growth at 10 µM (OVCAR-8): < 10%; inhibition of growth at 10 µM (OVCAR-5): < 10% |
| O=c1c2ccccc2nc(SCCN2CCCCC2)n1CCc1ccccc1 | 13 | 14 | < 10 | 19 | < 10 | 37 | 23 | 27 | < 10 | < 10 | 19 | < 10 | < 10 | < 10 | < 10 | < 10 | 20 | < 10 | 70 | 34 | inhibition of growth at 10 µM (SK-MEL-28): < 10%; inhibition of growth at 10 µM (Malme-3M): < 10%; inhibition of growth at 10 µM (ACHN): < 10%; inhibition of growth at 10 µM (IGROV-1): 22%; inhibition of growth at 10 µM (DU-145): 11%; inhibition of growth at 10 µM (UO-31): 43%; inhibition of growth at 10 µM (SF-539): < 10%; inhibition of growth at 10 µM (UACC-62): < 10%; inhibition of growth at 10 µM [1]: 13%; inhibition of growth at 10 µM (CAKI-1): 27%; inhibition of growth at 10 µM (COLO 205): 25%; inhibition of growth at 10 µM (SW-620): 11%; inhibition of growth at 10 µM (OVCAR-8): < 10%; inhibition of growth at 10 µM (OVCAR-5): 12% |
| COc1ccc(-n2c(S)nnc2CSc2nc3ccccc3c(=O)n2CCc2ccccc2)cc1 | 12 | < 10 | < 10 | < 10 | < 10 | 28 | < 10 | < 10 | < 10 | < 10 | < 10 | < 10 | < 10 | 38 | < 10 | 30 | 25 | < 10 | < 10 | 20 | inhibition of growth at 10 µM (SK-MEL-28): < 10%; inhibition of growth at 10 µM (Malme-3M): < 10%; inhibition of growth at 10 µM (ACHN): < 10%; inhibition of growth at 10 µM (IGROV-1): 16%; inhibition of growth at 10 µM (DU-145): < 10%; inhibition of growth at 10 µM (UO-31): 30%; inhibition of growth at 10 µM (SF-539): < 10%; inhibition of growth at 10 µM (UACC-62): 19%; inhibition of growth at 10 µM [1]: < 10%; inhibition of growth at 10 µM (CAKI-1): 17%; inhibition of growth at 10 µM (COLO 205): < 10%; inhibition of growth at 10 µM (SW-620): < 10%; inhibition of growth at 10 µM (OVCAR-8): < 10%; inhibition of growth at 10 µM (OVCAR-5): < 10% |
| O=C(CSc1nc2ccccc2c(=O)n1CCc1ccccc1)c1ccccc1 | 18 | < 10 | < 10 | < 10 | < 10 | < 10 | < 10 | 19 | < 10 | < 10 | < 10 | < 10 | < 10 | 14 | < 10 | 14 | < 10 | < 10 | < 10 | 11 | inhibition of growth at 10 µM (SK-MEL-28): < 10%; inhibition of growth at 10 µM (Malme-3M): 14%; inhibition of growth at 10 µM (ACHN): < 10%; inhibition of growth at 10 µM (IGROV-1): < 10%; inhibition of growth at 10 µM (DU-145): < 10%; inhibition of growth at 10 µM (UO-31): 22%; inhibition of growth at 10 µM (SF-539): < 10%; inhibition of growth at 10 µM (UACC-62): 16%; inhibition of growth at 10 µM [1]: < 10%; inhibition of growth at 10 µM (CAKI-1): 22%; inhibition of growth at 10 µM (COLO 205): < 10%; inhibition of growth at 10 µM (SW-620): < 10%; inhibition of growth at 10 µM (OVCAR-8): 15%; inhibition of growth at 10 µM (OVCAR-5): < 10% |

Source: ChEMBL document CHEMBL3044826, “Design, synthesis and biological evaluation of some novel substituted 2-mercapto-3-phenethylquinazolines as antitumor agents” (2013)
